Consider three compounds from patent US10221139B2, “Inhibitors of histone demethylases” (Gilead Sciences, Inc., priority 2012, dated 2019).

As a reminder, the IC50 is the concentration needed to halve the response being measured. Low values mean greater potency in that assay, high ones weaker potency in that assay.

The structures appear in SMILES notation.

Assay type in all cases: cell-based
Common to all, as to conditions: 20 hours

One experiment concerns the target T1, JMJD2A (KDM4A) (Homo sapiens, UniProt O75164).
T1 construct: Full length; host or cells: U2OS
T1 sequence (O75164 1-1064): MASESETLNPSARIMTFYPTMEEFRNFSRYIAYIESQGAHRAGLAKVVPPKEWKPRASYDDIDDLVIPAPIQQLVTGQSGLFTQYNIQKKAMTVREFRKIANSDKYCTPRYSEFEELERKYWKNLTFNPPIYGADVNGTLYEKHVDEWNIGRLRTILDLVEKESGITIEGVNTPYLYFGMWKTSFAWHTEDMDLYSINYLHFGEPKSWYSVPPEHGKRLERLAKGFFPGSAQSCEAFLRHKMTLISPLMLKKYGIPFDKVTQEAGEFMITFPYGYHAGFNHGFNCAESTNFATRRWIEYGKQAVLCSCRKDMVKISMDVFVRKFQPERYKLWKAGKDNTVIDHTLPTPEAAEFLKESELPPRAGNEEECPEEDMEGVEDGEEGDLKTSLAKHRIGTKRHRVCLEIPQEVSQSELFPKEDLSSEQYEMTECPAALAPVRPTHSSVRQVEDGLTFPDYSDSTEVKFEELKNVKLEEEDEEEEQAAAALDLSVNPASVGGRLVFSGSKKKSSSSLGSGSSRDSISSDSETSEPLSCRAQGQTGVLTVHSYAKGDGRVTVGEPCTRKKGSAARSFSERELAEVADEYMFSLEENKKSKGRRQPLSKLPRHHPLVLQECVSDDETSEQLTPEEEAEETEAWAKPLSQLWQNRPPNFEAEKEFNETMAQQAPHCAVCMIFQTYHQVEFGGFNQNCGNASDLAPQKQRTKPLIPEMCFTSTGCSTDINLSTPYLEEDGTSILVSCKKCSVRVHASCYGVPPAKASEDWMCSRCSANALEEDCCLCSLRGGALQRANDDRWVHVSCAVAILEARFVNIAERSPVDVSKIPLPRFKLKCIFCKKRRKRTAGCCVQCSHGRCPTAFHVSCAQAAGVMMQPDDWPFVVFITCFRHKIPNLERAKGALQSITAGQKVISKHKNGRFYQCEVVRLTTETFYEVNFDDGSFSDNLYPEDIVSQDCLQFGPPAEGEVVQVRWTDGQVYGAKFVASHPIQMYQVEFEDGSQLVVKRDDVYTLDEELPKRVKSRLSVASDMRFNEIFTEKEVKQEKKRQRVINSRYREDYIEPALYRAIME
As to the kind of experiment: Immunofluorescence assay in U2OS cells transfected with pCMVHA JMJD2A (H3K9me3 mark). On the procedure: (§1) U2OS cells were seeded 24 hours before transfection. Transfection was performed with Fugene HD transfection reagent as recommended by the manufacturer. 6 hours after transfection, the cells were harvested and seeded into multi well plates into media containing compound. The media used was DMEM containing 5% FBS and pen/strep. 20 hours after incubation of cells with compounds, the cells were washed once in PBS, harvested by fixation with formaldehyde 4% aqueous solution, and washed 2 times in PBS. Subsequently, the cells were permeabilized in PBS with 0.2% Triton X-100 for 10 min at room temperature. Blocking was performed in PBS with 0.2% Triton X-100 and 5% FBS for 45 min at room temperature. The cells were incubated with primary antibodies diluted 1 μg/ml in blocking solution over night at 4° C. The primary antibodies used in the assays were HA.11 (Covance, MMS-101P) and the antibody detecting the mark specified in the Table 6 below. After incubation with primary antibodies, the cells were washed 3 times with PBS, incubated with secondary antibodies diluted 1:1000 (Alexa fluor 594 goat anti rabbit IgG, Invitrogen, A11012; Alexa flour 488 donkey anti mouse IgG, Invitrogen, A21202) and Hoechst, 20 μg/ml (Sigma, 33342) in blocking solution, and washed again 3 times with PBS. Finally, PBS was added and high throughput imaging and analysis were performed by an IN Cell Analyzer 1000 (GE Healthcare). The robot software analyzed individual cells and divided these into HA^+ (transfected cells) and HA^− (non-transfected cells). The IC50 values in Table 7 below were based on an average measure of the staining of the mark specified in the Table 6 below in the transfected cells.

The target in a further experiment is T2, GASC1 (KDM4C) (Homo sapiens, UniProt Q9H3R0).
T2 construct: Full length; host or cells: U2OS
T2 sequence (Q9H3R0 1-1056): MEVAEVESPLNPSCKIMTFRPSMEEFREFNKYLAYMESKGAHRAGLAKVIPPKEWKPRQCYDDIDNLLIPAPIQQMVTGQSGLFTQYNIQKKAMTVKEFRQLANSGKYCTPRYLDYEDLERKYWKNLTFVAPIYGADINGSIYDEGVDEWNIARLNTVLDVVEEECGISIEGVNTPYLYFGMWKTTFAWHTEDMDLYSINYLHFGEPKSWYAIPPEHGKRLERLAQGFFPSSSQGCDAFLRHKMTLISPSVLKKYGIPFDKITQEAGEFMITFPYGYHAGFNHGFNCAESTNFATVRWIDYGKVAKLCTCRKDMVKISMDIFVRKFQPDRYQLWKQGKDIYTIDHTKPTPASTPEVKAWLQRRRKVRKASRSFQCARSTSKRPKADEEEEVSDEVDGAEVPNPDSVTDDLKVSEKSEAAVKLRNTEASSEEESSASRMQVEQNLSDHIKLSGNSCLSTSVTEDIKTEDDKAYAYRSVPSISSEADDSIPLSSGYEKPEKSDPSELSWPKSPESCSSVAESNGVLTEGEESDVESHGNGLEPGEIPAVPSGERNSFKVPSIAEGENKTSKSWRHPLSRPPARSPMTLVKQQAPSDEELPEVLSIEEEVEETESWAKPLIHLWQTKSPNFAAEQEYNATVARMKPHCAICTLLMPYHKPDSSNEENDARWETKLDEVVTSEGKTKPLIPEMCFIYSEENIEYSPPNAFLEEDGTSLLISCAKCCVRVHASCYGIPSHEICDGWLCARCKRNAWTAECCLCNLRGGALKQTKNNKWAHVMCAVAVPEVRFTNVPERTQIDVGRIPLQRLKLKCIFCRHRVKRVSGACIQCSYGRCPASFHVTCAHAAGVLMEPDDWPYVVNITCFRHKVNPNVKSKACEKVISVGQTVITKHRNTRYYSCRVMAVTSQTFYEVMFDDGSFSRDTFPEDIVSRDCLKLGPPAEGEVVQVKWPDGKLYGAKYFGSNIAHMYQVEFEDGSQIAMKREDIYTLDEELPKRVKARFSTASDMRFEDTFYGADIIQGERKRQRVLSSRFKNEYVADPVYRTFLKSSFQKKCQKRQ
Briefly: Immunofluorescence assay in U2OS cells transfected with pCMVHA JMJD2C (H3K9me3 mark). On the procedure: as §1

For the next experiment, the target named is T3, PLU1 (KDM5B) (Homo sapiens, UniProt Q9UGL1).
T3 construct: (1-752); host or cells: U2OS
T3 sequence (Q9UGL1 1-752): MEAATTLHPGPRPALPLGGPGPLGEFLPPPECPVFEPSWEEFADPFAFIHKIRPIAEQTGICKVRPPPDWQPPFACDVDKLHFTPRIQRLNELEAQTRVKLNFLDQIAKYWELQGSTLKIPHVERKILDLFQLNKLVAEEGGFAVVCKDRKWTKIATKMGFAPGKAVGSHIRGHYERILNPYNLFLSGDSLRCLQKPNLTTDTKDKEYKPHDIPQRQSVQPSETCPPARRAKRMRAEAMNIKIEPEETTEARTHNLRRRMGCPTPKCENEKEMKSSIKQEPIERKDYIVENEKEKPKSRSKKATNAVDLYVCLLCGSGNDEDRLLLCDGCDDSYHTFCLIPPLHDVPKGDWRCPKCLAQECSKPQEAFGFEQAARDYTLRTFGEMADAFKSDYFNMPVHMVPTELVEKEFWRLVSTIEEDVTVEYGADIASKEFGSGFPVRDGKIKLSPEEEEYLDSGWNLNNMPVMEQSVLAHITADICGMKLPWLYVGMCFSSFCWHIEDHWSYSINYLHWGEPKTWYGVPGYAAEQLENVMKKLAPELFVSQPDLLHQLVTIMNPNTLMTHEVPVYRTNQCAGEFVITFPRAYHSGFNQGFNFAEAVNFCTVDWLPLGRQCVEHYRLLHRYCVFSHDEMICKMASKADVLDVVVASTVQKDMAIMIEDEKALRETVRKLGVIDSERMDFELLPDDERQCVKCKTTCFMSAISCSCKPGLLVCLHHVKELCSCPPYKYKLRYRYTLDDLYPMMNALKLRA
Briefly: Immunofluorescence assay in U2OS cells transfected with pCMVHA PLU1 (H3K4me2 mark). The method in brief:
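U2OS cells transiently expressing HA-tagged demethylase, exposed to compound 6 h post-transfection for 20 h in DMEM/5% FBS. Cells fixed, then immunostained for HA and the histone methyl mark and imaged by high-content analysis. IC50 from mean mark staining in HA-positive transfected cells.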

Regarding `CCN(CCN(C)C)C(=O)CNCc1cc(C(=O)O)ccn1` [drawing 328, 2-{[({[2-(dimethylamino)ethyl](ethyl)carbamoyl}methyl)amino]methyl}pyridine-4-carboxylic acid], the 50% inhibitory concentration (IC50) at JMJD2A (KDM4A) was 1 to 50 µM; against GASC1 (KDM4C), more than 50 µM; against PLU1 (KDM5B), 1 to 50 µM.

`CCOC(=O)N(C)c1ccc(COC(=O)c2ccnc(CNCCCCN(CC)CC)c2)cc1` [drawing 333, {4-[(ethoxycarbonyl)(methyl)amino]phenyl}methyl 2-({[4-(diethylamino)butyl]amino}methyl)pyridine-4-carboxylate] had an IC50 against JMJD2A (KDM4A) of less than 1 µM. `CCCCCCCCCCCCCCCC(=O)OCC(COC(=O)CCCCCCCCCCCCCCC)OC(=O)c1ccnc(CNCC(=O)N(CC)CCN(C)C)c1` [drawing 334, 2-(2-{[({[2-(dimethylamino)ethyl](ethyl)carbamoyl}methyl)amino]methyl}pyridine-4-carbonyloxy)-3-(hexadecanoyloxy)propyl hexadecanoate] had a 50% inhibitory concentration (IC50) at JMJD2A (KDM4A) of 1 to 50 µM.
